Patent publication US8789785B2, “Device for micronization of solid materials and its use” (Lambano Trading Limited, priority 2010, dated 2014)

Test: bioavailability of the substance micronized with the device
Format: in vivo
Details: after micronization with the device from the present invention
Text: As an example of pharmaceutically active substance herein is mentioned anti-inflammatory substance alclometasone-17,21-dipropionate which was successfully micronized with the device from the present invention yielding the product of increased bioavailability.

SMILES: CCC(=O)OCC(=O)[C@@]1(OC(=O)CC)[C@H](C)C[C@H]2[C@H]3[C@H]([C@@H](O)C[C@@]21C)[C@@]1(C)C=CC(=O)C=C1C[C@H]3Cl [alclometasone-17,21-dipropionate]
- bioavailability of the micronized product: increased
